In patent publication US10041937B2, “Macrophage identification agent, and identification method, sorting method, evaluation method, screening method and kit using the macrophage identifier agent” (CANON KABUSHIKI KAISHA, priority 2013, dated 2018):
“Also recorded” adds a separate entry of the source.

Test system: M1 macrophages and M2 macrophages differentiated from mouse bone marrow cells
Test: Subtype identification by staining and flow cytometry of M1 and M2 macrophages differentiated from mouse bone marrow cells
Type: cell-based, Balb/c mouse
Conditions: for subtype more strongly stained: two compounds used in combination, each 1 μM
Method: The culture of subtypes was performed according to a protocol described in NPL 7. Specifically, bone marrow cells collected from the femur of a Balb/c mouse of 8 to 10 weeks old were dispersed to a concentration of 1×10^6/mL in an IMDM containing 20% FBS and 1% P/S, and 1×10^7 cells were seeded in a 100 mm dish. After further adding an M-CSF (manufactured by Pepro Tech) thereto to a concentration of 50 ng/mL, the cells were incubated for 3 to 4 days in the presence of 5% CO2 at 37° C., so as to differentiate macrophage precursor cells to macrophages. After exchanging the medium, the M-CSF was added to a concentration of 50 ng/mL, and the incubation was performed for further 3 to 4 days in the presence of 5% CO2 at 37° C., and then, the resulting cells were differentiated to macrophage. By adding 200 ng of interferon-γ and 1 μg of […] (both manufactured by Pepro Tech) to the IMDM containing 5% FBS and 1% P/S, the cells were differentiated to the subtype M1. Besides, by adding 100 ng of IL-4 to the IMDM containing 5% FBS and 1% P/S, the cells were differentiated to the subtype M2. After performing the incubation for further 3 days in the presence of 5% CO2 at 37° C., the resultant was rinsed with PBS, and PBS containing 0.25% trypsin and 1 mM EDTA (ethylenediaminetetraacetic acid) was used for collecting, from the dish, the macrophages having been differentiated to the subtypes M1 and M2.
Thereafter, the tube was centrifuged at 180 G for 10 minutes to remove the supernatant, a dye for identifying dead cells (aqua fluorescent reactive dye, manufactured by Invitrogen; which is hereinafter sometimes abbreviated as aqua) was added thereto, and the resultant was incubated at 4° C. for 10 minutes. Subsequently, the tube was centrifuged at 180 G for 10 minutes to remove the supernatant, cells were suspended in a FACS buffer to be analyzed by using FACSCanto (trademark) II flow cytometry apparatus manufactured by BD.
The analysis was performed on a cell population showing a low signal for the aqua, so as to analyze a cell population from which dead cells were eliminated. […] A histogram was prepared by plotting fluorescence intensity obtained in the FITC channel on the abscissa and plotting the number of cells at each fluorescence intensity on the ordinate, which is shown in FIG. 2.
Histograms were prepared by plotting fluorescence intensities obtained in the respective channels on the abscissa and plotting the numbers of cells at each fluorescence intensity on the ordinate. A difference between a fluorescence intensity (FM1) at a peak top of the histogram of the M1 macrophage and a fluorescence intensity (FM2) at a peak top of the histogram of the M2 macrophage is divided by a sum of a peak width (WM1) of the histogram of the M1 macrophage and a peak width (WM2) of the histogram of the M2 macrophage, so as to obtain a resolution R, which was used as an index of the identification ability for a subtype (see the following expression (1)). Resolution R=|FM1−FM2|/(WM1+WM2) Expression (1)

[1] = R=|FM1−FM2|/(WM1+WM2), compound 1 μM
[2] = fluorescence intensity at peak top of histogram, compound 1 μM, 37° C., 30 minutes
[3] = M1 vs M2 macrophages from mouse bone marrow cells, general formula (6) dyes (Table 7)
[4] = class based on resolution R, general formula (6) dyes (Table 7)
[5] = mouse bone marrow-derived M1 macrophages, channel listed per compound, general formula (6) dyes (Table 7)
[6] = mouse bone marrow-derived M2 macrophages, channel listed per compound, general formula (6) dyes (Table 7)

Compound	Resolution ratio R [1]	Peak position of M1 macrophage [2]	Peak position of M2 macrophage [2]	Evaluation of macrophage subtype identification (rated from resolution R)	also measured
CCOC(=O)Cn1c(=O)/c(=C\c2ccc3c(c2)C2CCCC2N3c2ccc(OC)cc2)s/c1=C1/SC(=O)N(CC)C1=O (stereo not shown) [(45)]	0.822	18.2	4.84	A (The compound is very good in the subtype identification (namely, the resolution R is 0.5 or more))	–
CSc1cccc(N2c3ccc(/C=C4/SC(=S)N(CC(=O)O)C4=O)cc3C3CCCC32)c1 (stereo not shown) [(50)]	1.025	3.24	0.99	A (The compound is very good in the subtype identification (namely, the resolution R is 0.5 or more))	–
CCN1/C(=C\C=C\C2=[N+](CC)c3ccccc3C23CCCCC3)C2(CCCCC2)c2ccccc21 [(99)]	–	–	–	–	Resolution ratio R [3]: 0.673; Evaluation of macrophage subtype identification [4]: A (The compound is very good in the subtype identification (namely, the resolution R is 0.5 or more)); Peak position of M1 macrophage [5]: 191.14; Peak position of M2 macrophage [6]: 331.51
COc1ccc2cc(N3c4ccc(/C=C5\C(=O)N(c6ccc(C(=O)O)cc6)N=C5C)cc4C4CCCC43)ccc2c1 (stereo not shown) [(36)]	0.344	5.70	3.82	B (the compound is good in the subtype identification (namely, the resolution R is 0.15 or more and less than 0.5))	–
CCN1c2ccc(/C=C3/SC(=S)N(CCC(=O)O)C3=O)cc2CC1C (stereo not shown) [(56)]	0.207	4.90	6.36	B (the compound is good in the subtype identification (namely, the resolution R is 0.15 or more and less than 0.5))	–
CN1/C(=C/C2=C([O-])C(=C/C3=[N+](C)c4ccccc4C3(C)C)/C2=O)C(C)(C)c2ccccc21 [compound (113)]	–	–	–	–	Resolution ratio R [3]: 0.857; Evaluation of macrophage subtype identification [4]: A (The compound is very good in the subtype identification (namely, the resolution R is 0.5 or more)); Peak position of M1 macrophage [5]: 9.05; Peak position of M2 macrophage [6]: 21.39; subtype more strongly stained: the M2 macrophage shows a higher fluorescence intensity in the APC-Cy7 channel than the M1 macrophage; also recorded: the M2 macrophages are more strongly stained than the M1 macrophages
O=C(O)CCCCCN1C(=O)/C(=C\c2ccc3c(c2)C2CCCC2N3c2ccccc2)SC1=S (stereo not shown) [(17)]	0.577	7.74	16.5	A (The compound is very good in the subtype identification (namely, the resolution R is 0.5 or more))	–
CCN1C(=O)/C(=c2\s/c(=C/c3ccc4c(c3)CC(C)N4CC)c(=O)n2CC(=O)O)SC1=S (stereo not shown) [(57)]	0.167	4.20	3.59	B (the compound is good in the subtype identification (namely, the resolution R is 0.15 or more and less than 0.5))	–
CCOC(=O)CN1C(=O)/C(=C\c2ccc3c(c2)C2CCCC2N3c2ccc(OC)cc2)SC1=S (stereo not shown) [(21)]	0.351	40.0	20.3	B (the compound is good in the subtype identification (namely, the resolution R is 0.15 or more and less than 0.5))	–
CC1=NN(c2ccc(C(=O)O)cc2)C(=O)/C1=C\c1ccc2c(c1)C1CCCC1N2c1ccccc1 (stereo not shown) [(35)]	0.192	1.15	1.29	B (the compound is good in the subtype identification (namely, the resolution R is 0.15 or more and less than 0.5))	–
O=C(O)Cn1c(=O)/c(=C\c2ccc3c(c2)C2CCCC2N3Cc2ccccc2)s/c1=C1/SC(=S)N(Cc2ccccc2)C1=O (stereo not shown) [(53)]	0.650	128	190	A (The compound is very good in the subtype identification (namely, the resolution R is 0.5 or more))	–
O=C(O)CN1C(=O)/C(=C\c2ccc3c(c2)C2CCCC2N3c2ccc(C=C(c3ccccc3)c3ccccc3)cc2)SC1=S (stereo not shown) [(31)]	0.248	65.1	89.0	B (the compound is good in the subtype identification (namely, the resolution R is 0.15 or more and less than 0.5))	–
CCN1C(=C/C=C/c2n(CC)c3cc(Cl)c(Cl)cc3[n+]2CC)N(CC)c2cc(Cl)c(Cl)cc21 [compound (103)]	–	–	–	–	Resolution ratio R [3]: 0.597; Evaluation of macrophage subtype identification [4]: A (The compound is very good in the subtype identification (namely, the resolution R is 0.5 or more)); Peak position of M1 macrophage [5]: 2.97; Peak position of M2 macrophage [6]: 8.23; subtype more strongly stained: the M2 macrophage shows a higher fluorescence intensity in the PE-Cy7 channel than the M1 macrophage
CC1=CC(C)=[N+]2C1=C(c1ccccc1)c1c(C)cc(C)n1[B-]2(F)F [(148)]	–	–	–	–	Resolution ratio R (M1 vs M2 macrophages from mouse bone marrow cells, general formula (11) dyes (Table 9)): 0.193; Evaluation of macrophage subtype identification (class based on resolution R, general formula (11) dyes (Table 9)): B (the compound is good in the subtype identification (namely, the resolution R is 0.15 or more and less than 0.5)); Peak position of M1 macrophage (mouse bone marrow-derived M1 macrophages, channel listed per compound, general formula (11) dyes (Table 9)): 109; Peak position of M2 macrophage (mouse bone marrow-derived M2 macrophages, channel listed per compound, general formula (11) dyes (Table 9)): 151
COC(=O)C(C)N1C(=O)/C(=C\c2ccc3c(c2)C2CCCC2N3c2ccc(OC)cc2)SC1=S (stereo not shown) [(7)]	0.567	65.4	23.6	A (The compound is very good in the subtype identification (namely, the resolution R is 0.5 or more))	–
CCOC(=O)CN1C(=O)/C(=C\c2cc(Br)c3c(c2)C2CCCC2N3c2ccc(Br)cc2)SC1=S (stereo not shown) [(49)]	0.486	3.26	5.02	B (the compound is good in the subtype identification (namely, the resolution R is 0.15 or more and less than 0.5))	–
CC1(C)C(/C=C/C=C/C=C/C=C2\N(CCCCS(=O)(=O)[O-])c3ccccc3C2(C)C)=[N+](CCCCS(=O)(=O)[O-])c2ccccc21.[Na+] [(88)]	–	–	–	–	Resolution ratio R [3]: 0.241; Evaluation of macrophage subtype identification [4]: B (the compound is good in the subtype identification (namely, the resolution R is 0.15 or more and less than 0.5)); Peak position of M1 macrophage [5]: 0.95; Peak position of M2 macrophage [6]: 1.48
O=C(O)CN1C(=O)/C(=C\c2ccc3c(c2)C2CCCC2N3c2ccccc2)SC1=S (stereo not shown) [(24)]	0.347	18.1	27.6	B (the compound is good in the subtype identification (namely, the resolution R is 0.15 or more and less than 0.5))	–
O=C(O)CCC(C(=O)O)N1C(=O)/C(=C\c2ccc3c(c2)C2CCCC2N3c2ccccc2)SC1=S (stereo not shown) [(23)]	0.185	1.10	1.48	B (the compound is good in the subtype identification (namely, the resolution R is 0.15 or more and less than 0.5))	–
CC1(C)C(/C=C/C=C/C=C/C=C2\N(CCCCS(=O)(=O)[O-])c3ccccc3C2(C)C)=[N+](CCCCS(=O)(=O)[O-])c2ccccc21.[Na+] [(90)]	–	–	–	–	Resolution ratio R [3]: 0.321; Evaluation of macrophage subtype identification [4]: B (the compound is good in the subtype identification (namely, the resolution R is 0.15 or more and less than 0.5)); Peak position of M1 macrophage [5]: 0.86; Peak position of M2 macrophage [6]: 1.31
